Results from ChEMBL document CHEMBL1201862, “PubChem BioAssay data set” (2004).
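Tested at 5 concentrations; 48 h exposure; 96-well plates; endpoints linearly interpolated, else capped at highest concentration. At the GI50, growth is halved.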 Calls of active or inactive are those of the source. No stated cut-off is given here; in the data, active = GI50 up to about 1.1 µM and inactive = higher.

Experiments:
Experiment in all cases: DTP human tumour cell line panel, 48 h
SNB-75 = tested on: SNB-75
IGROV-1 = tested on: IGROV-1
HCT-116 = tested on: HCT-116
RPMI-8226 = tested on: RPMI-8226
SK-OV-3 = tested on: SK-OV-3
SF-539 = tested on: SF-539
Malme-3M = tested on: Malme-3M
KM12 = tested on: KM12
COLO 205 = tested on: COLO 205
SK-MEL-5 = tested on: SK-MEL-5
SN12C = tested on: SN12C
OVCAR-4 = tested on: OVCAR-4
U-251 = tested on: U-251
HOP-62 = tested on: HOP-62

S=c1c2ccccc2c(=S)n2n1CC=CC2
GI50 (SNB-75): 68.1 µM (inactive)
GI50 (IGROV-1): > 100 µM (inactive)
GI50 (HCT-116): > 100 µM (inactive)
GI50 (RPMI-8226): > 100 µM (inactive)
GI50 (SK-OV-3): > 100 µM (inactive)
GI50 (SF-539): > 100 µM (inactive)
GI50 (Malme-3M): > 100 µM (inactive)
GI50 (KM12): > 100 µM (inactive)
GI50 (COLO 205): > 100 µM (inactive)
GI50 (SK-MEL-5): > 100 µM (inactive)
GI50 (SN12C): > 100 µM (inactive)
GI50 (OVCAR-4): > 100 µM (inactive)
GI50 (U-251): > 100 µM (inactive)

C/C=C1\CN2CCc3c([nH]c4ccccc34)C2CC1C(=O)OC (centres undefined)
GI50 (IGROV-1): > 322 µM (inactive)
GI50 (HCT-116): > 322 µM (inactive)
GI50 (RPMI-8226): > 322 µM (inactive)
GI50 (HOP-62): > 322 µM (inactive)
GI50 (SK-OV-3): > 322 µM (inactive)
GI50 (SF-539): > 322 µM (inactive)
GI50 (Malme-3M): > 322 µM (inactive)
GI50 (KM12): > 322 µM (inactive)
GI50 (COLO 205): > 322 µM (inactive)
GI50 (SK-MEL-5): > 322 µM (inactive)
GI50 (SN12C): > 322 µM (inactive)
GI50 (U-251): > 322 µM (inactive)

CC1(C)OC(C[C@]2(C#N)C[C@H](CCl)OC(C)(C)O2)C[C@@H](C[C@]2(C#N)C[C@H](CCl)OC(C)(C)O2)O1 (some centres undefined)
GI50 (SNB-75): > 100 µM (inactive)
GI50 (IGROV-1): > 100 µM (inactive)
GI50 (HCT-116): 60.4 µM (inactive)
GI50 (RPMI-8226): > 100 µM (inactive)
GI50 (HOP-62): > 100 µM (inactive)
GI50 (SK-OV-3): > 100 µM (inactive)
GI50 (SF-539): > 100 µM (inactive)
GI50 (Malme-3M): > 100 µM (inactive)
GI50 (KM12): > 100 µM (inactive)
GI50 (COLO 205): > 100 µM (inactive)
GI50 (SK-MEL-5): 51.6 µM (inactive)
GI50 (SN12C): > 100 µM (inactive)
GI50 (OVCAR-4): > 100 µM (inactive)
GI50 (U-251): > 100 µM (inactive)

CC(NS(=O)(=O)c1ccc(Cl)cc1)C(=O)O (centres undefined)
GI50 (SNB-75): > 100 µM (inactive)
GI50 (IGROV-1): > 100 µM (inactive)
GI50 (RPMI-8226): > 100 µM (inactive)
GI50 (SK-OV-3): > 100 µM (inactive)
GI50 (SF-539): > 100 µM (inactive)
GI50 (Malme-3M): > 100 µM (inactive)
GI50 (KM12): > 100 µM (inactive)
GI50 (COLO 205): > 100 µM (inactive)
GI50 (SK-MEL-5): > 100 µM (inactive)
GI50 (SN12C): > 100 µM (inactive)
GI50 (OVCAR-4): > 100 µM (inactive)
GI50 (U-251): > 100 µM (inactive)

Cc1cc(=O)oc2c1cc(OCC(=O)OCCN1CCCCC1)c1occ(C)c12
GI50 (SNB-75): > 100 µM (inactive)
GI50 (HCT-116): > 100 µM (inactive)
GI50 (RPMI-8226): > 100 µM (inactive)
GI50 (SF-539): > 100 µM (inactive)
GI50 (Malme-3M): > 100 µM (inactive)
GI50 (KM12): > 100 µM (inactive)
GI50 (SK-MEL-5): > 100 µM (inactive)
GI50 (SN12C): > 100 µM (inactive)
GI50 (OVCAR-4): > 100 µM (inactive)
GI50 (U-251): > 100 µM (inactive)

COC(=O)CC[C@@H](NC(=O)C(C)NC(=O)COC1C(O)C(COC(=O)CCCCCCCCCCNC(=O)c2ccc([N+](=O)[O-])c3[nH]c4cc(Br)ccc4c(=O)c23)OC(OCc2ccccc2)C1NC(C)=O)C(N)=O (some centres undefined)
GI50 (SNB-75): > 100 µM (inactive)
GI50 (IGROV-1): 19.5 µM (inactive)
GI50 (HCT-116): > 100 µM (inactive)
GI50 (RPMI-8226): 39.7 µM (inactive)
GI50 (HOP-62): 83.8 µM (inactive)
GI50 (SK-OV-3): > 100 µM (inactive)
GI50 (SF-539): > 100 µM (inactive)
GI50 (Malme-3M): > 100 µM (inactive)
GI50 (KM12): > 100 µM (inactive)
GI50 (COLO 205): 96.6 µM (inactive)
GI50 (SK-MEL-5): 68.7 µM (inactive)
GI50 (SN12C): > 100 µM (inactive)
GI50 (OVCAR-4): > 100 µM (inactive)
GI50 (U-251): > 100 µM (inactive)

CCC1(OC(C)=O)C(=O)OCc2c1cc1n(c2=O)Cc2cc3ccccc3nc2-1 (centres undefined)
GI50 (SNB-75): 1.48 µM (inactive)
GI50 (IGROV-1): 7.52 µM (inactive)
GI50 (HCT-116): 2.03 µM (inactive)
GI50 (RPMI-8226): 4.2 µM (inactive)
GI50 (HOP-62): 0.316 µM (active)
GI50 (SK-OV-3): 2.28 µM (inactive)
GI50 (SF-539): 0.568 µM (active)
GI50 (Malme-3M): 3.44 µM (inactive)
GI50 (KM12): 7.6 µM (inactive)
GI50 (COLO 205): 35.1 µM (inactive)
GI50 (SK-MEL-5): 1.23 µM (inactive)
GI50 (SN12C): 0.638 µM (active)
GI50 (OVCAR-4): 41.4 µM (inactive)
GI50 (U-251): 0.289 µM (active)
